Source: ChEMBL document CHEMBL1146876, “Structurally diverse 5-substituted pyrimidine nucleosides as inhibitors of Leishmania donovani promastigotes in vitro” (Bioorg Med Chem Lett, 2006)

Test system: Leishmania donovani
Assay: Antileishmanial activity against Leishmania donovani LV9 promastigotes by MTT method
Assay type: functional, organism-based

Compound	IC50 [µM]
CC(=O)OC[C@H]1O[C@@H](n2cc(C3C(C#N)=C(N)OC4=C3C(=O)CC(c3ccc(F)cc3)C4)c(=O)[nH]c2=O)C[C@@H]1OC(C)=O (some centres undefined)	95.3
N#CC1=C(N)Oc2cc3ccccc3c(O)c2C1c1cn([C@H]2C[C@H](O)[C@@H](CO)O2)c(=O)[nH]c1=O (some centres undefined)	> 100
CC(=O)OC[C@H]1O[C@@H](n2cc(C3C(C#N)=C(N)OC4=C3C(=O)CC(c3ccccc3)C4)c(=O)[nH]c2=O)C[C@@H]1OC(C)=O (some centres undefined)	85.9
N#CC(C#N)=Cc1cn([C@H]2C[C@H](O)[C@@H](CO)O2)c(=O)[nH]c1=O	1.5
CC(=O)OC[C@H]1O[C@@H](n2cc(C=O)c(=O)[nH]c2=O)C[C@@H]1OC(C)=O	> 100
CC(=O)OC[C@H]1O[C@@H](n2cc(C=C(C#N)C#N)c(=O)[nH]c2=O)C[C@@H]1OC(C)=O	30.1
CC(=O)OC[C@H]1O[C@@H](n2cc(/C=C/C#N)c(=O)[nH]c2=O)C[C@@H]1OC(C)=O	> 100
N#C/C=C/c1cn([C@H]2C[C@H](O)[C@@H](CO)O2)c(=O)[nH]c1=O	92
COC(=O)/C(C#N)=C/c1cn([C@H]2C[C@H](O)[C@@H](CO)O2)c(=O)[nH]c1=O	7.3
N#CC1=C(N)OC2=C(C(=O)CCC2)C1c1cn([C@H]2C[C@H](O)[C@@H](CO)O2)c(=O)[nH]c1=O (some centres undefined)	1.4
CCOC(=O)C1=C(N)OC2=C(C(=O)CC(C)(C)C2)C1c1cn([C@H]2C[C@H](O)[C@@H](CO)O2)c(=O)[nH]c1=O (some centres undefined)	7.2
CC(=O)OC[C@H]1O[C@@H](n2cc(C3C(C#N)=C(N)Oc4cc5ccccc5c(O)c43)c(=O)[nH]c2=O)C[C@@H]1OC(C)=O (some centres undefined)	> 100
CC(=O)OC[C@H]1O[C@@H](n2cc(C3C(C#N)=C(N)OC4=C3C(=O)CCC4)c(=O)[nH]c2=O)C[C@@H]1OC(C)=O (some centres undefined)	68.7
CC(=O)OC[C@H]1O[C@@H](n2cc(C3C(C#N)=C(N)OC4=C3C(=O)CC(c3ccc(Cl)cc3)C4)c(=O)[nH]c2=O)C[C@@H]1OC(C)=O (some centres undefined)	80.2
CC1(C)CC(=O)C2=C(C1)OC(N)=C(C#N)C2c1cn([C@H]2C[C@H](O)[C@@H](CO)O2)c(=O)[nH]c1=O (some centres undefined)	> 100
CC1=NN(c2ccccc2)C(=O)/C1=C(\C)c1cn([C@H]2C[C@H](O)[C@@H](CO)O2)c(=O)[nH]c1=O	3
CC(=O)OC[C@@H]1O[C@H](n2cc(C3C(C#N)=C(N)OC4CC(c5ccc(N(C)C)cc5)CC(=O)C43)c(=O)[nH]c2=O)C[C@H]1OC(C)=O (some centres undefined)	100

Compound	IC50 [µM]
CN(C)c1ccc(C2CC(=O)C3C(C2)OC(N)=C(C#N)C3c2cn([C@@H]3C[C@@H](O)[C@H](CO)O3)c(=O)[nH]c2=O)cc1 (some centres undefined)	6.2
N#Cc1cn([C@H]2C[C@H](O)[C@@H](CO)O2)c(=O)[nH]c1=O	> 100
CCOC(=O)/C(C#N)=C/c1cn([C@H]2C[C@H](OC(C)=O)[C@@H](COC(C)=O)O2)c(=O)[nH]c1=O	39.1
CN(C)c1ccc2c(c1)OC(N)=C(C#N)C2c1cn([C@H]2C[C@H](O)[C@@H](CO)O2)c(=O)[nH]c1=O (some centres undefined)	> 100
O=Cc1cn([C@H]2C[C@H](O)[C@@H](CO)O2)c(=O)[nH]c1=O	0.9
CCOC(=O)C1=C(N)OC2=C(C(=O)CC(C)(C)C2)C1c1cn([C@H]2C[C@H](OC(C)=O)[C@@H](COC(C)=O)O2)c(=O)[nH]c1=O (some centres undefined)	> 100
CC1CC(=O)C2=C(C1)OC(N)=C(C#N)C2c1cn([C@H]2C[C@H](O)[C@@H](CO)O2)c(=O)[nH]c1=O (some centres undefined)	9.4
N#CC1=C(N)OC2=C(C(=O)CC(c3ccc(Cl)cc3)C2)C1c1cn([C@H]2C[C@H](O)[C@@H](CO)O2)c(=O)[nH]c1=O (some centres undefined)	> 100
CCOC(=O)C1=C(N)OC2=C(C(=O)CCC2)C1c1cn([C@H]2C[C@H](O)[C@@H](CO)O2)c(=O)[nH]c1=O (some centres undefined)	10.5
N#CC1=C(N)OC2=C(C(=O)CC(c3ccc(F)cc3)C2)C1c1cn([C@H]2C[C@H](O)[C@@H](CO)O2)c(=O)[nH]c1=O (some centres undefined)	8.4
CC(=O)OC[C@H]1O[C@@H](n2cc(C3C(C#N)=C(N)OC4=C3C(=O)CC(C)C4)c(=O)[nH]c2=O)C[C@@H]1OC(C)=O (some centres undefined)	> 100
CC(=O)OC[C@H]1O[C@@H](n2cc(C3C(C#N)=C(N)OC4=C3C(=O)CC(C)(C)C4)c(=O)[nH]c2=O)C[C@@H]1OC(C)=O (some centres undefined)	80.4
CC(=O)OC[C@H]1O[C@@H](n2cc(/C=C\C#N)c(=O)[nH]c2=O)C[C@@H]1OC(C)=O	> 100
CCOC(=O)/C(C#N)=C/c1cn([C@H]2C[C@H](O)[C@@H](CO)O2)c(=O)[nH]c1=O	1.9
C[C@@H]1[C@H](O)[C@@H](C)/C=C/C=C/C=C/C=C/C=C/C=C/C=C/[C@H](O[C@@H]2O[C@H](C)[C@@H](O)[C@H](N)[C@@H]2O)C[C@@H]2O[C@](O)(C[C@@H](O)C[C@@H](O)[C@H](O)CC[C@@H](O)C[C@@H](O)CC(=O)O[C@H]1C)C[C@H](O)[C@H]2C(=O)O [AMPHOTERICIN B]	0.1
N=C(N)c1ccc(OCCCCCOc2ccc(C(=N)N)cc2)cc1 [PENTAMIDINE]	6.6
Cc1cn([C@H]2C[C@H](N=[N+]=[N-])[C@@H](CO)O2)c(=O)[nH]c1=O [ZIDOVUDINE]	3.4
